# Values of other authors, collected in patent US20220056154A1, “Bispecific Antibody Compositions and Methods for Treating COVID-19” (priority 2020, published 2022).
# Molecular target: hACE2 (Homo sapiens, UniProt Q9BYF1)
# Settings: 10 μM lisinopril, 10 μM captopril, 10 μM enalaprilat, 100 μM benzyl succinate, 10 mM EDTA; 100 μM angiotensin II; 37° C., 2 hours
# Sequence of hACE2 (Q9BYF1 18-805): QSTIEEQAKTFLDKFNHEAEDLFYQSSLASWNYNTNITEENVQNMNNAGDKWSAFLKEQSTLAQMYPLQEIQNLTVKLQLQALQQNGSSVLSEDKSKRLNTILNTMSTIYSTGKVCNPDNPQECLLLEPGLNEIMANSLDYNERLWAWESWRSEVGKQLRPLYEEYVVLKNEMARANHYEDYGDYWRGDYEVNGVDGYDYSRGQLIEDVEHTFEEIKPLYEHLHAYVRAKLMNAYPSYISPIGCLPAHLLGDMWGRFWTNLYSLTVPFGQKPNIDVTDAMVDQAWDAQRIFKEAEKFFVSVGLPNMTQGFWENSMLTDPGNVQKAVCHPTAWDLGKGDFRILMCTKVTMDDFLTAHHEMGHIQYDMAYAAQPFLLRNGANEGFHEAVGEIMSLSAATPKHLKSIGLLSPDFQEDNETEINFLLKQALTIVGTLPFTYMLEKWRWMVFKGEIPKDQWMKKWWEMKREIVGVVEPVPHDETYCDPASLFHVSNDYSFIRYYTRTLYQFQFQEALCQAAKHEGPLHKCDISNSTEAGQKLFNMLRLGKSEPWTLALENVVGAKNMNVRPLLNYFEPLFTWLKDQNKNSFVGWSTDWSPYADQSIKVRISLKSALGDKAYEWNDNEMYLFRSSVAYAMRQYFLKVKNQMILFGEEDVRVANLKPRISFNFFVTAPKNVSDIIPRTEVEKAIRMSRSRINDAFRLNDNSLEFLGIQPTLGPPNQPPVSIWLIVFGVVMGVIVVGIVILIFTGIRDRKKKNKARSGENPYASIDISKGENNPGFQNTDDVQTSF
row,SMILES,inhibition of hACE2 activity (angiotensin II cleavage)
1,O=C(O)CN(CCN(CC(=O)O)CC(=O)O)CC(=O)O [EDTA],inhibits hACE2 activity
2,O=C(O)CC(Cc1ccccc1)C(=O)O (centres unmarked) [benzyl succinate],"none of lisinopril, captopril, enalaprilat, and benzyl succinate (a carboxypeptidase A inhibitor) inhibits hACE2 activity"
